According to PubChem BioAssay AID330 (DTP/NCI, 2004):
“And” between values parts separate entries of the source, which are not always exact repeats. Equal values may be shown once. Toxic doses and inconclusive results are not listed. The calls were made as follows: active = survival T/C of 150% or more; inactive = T/C below 125% in these data.

System: P388 leukemia ip, CD2F1 mice, survival T/C
Experiment: NCI In Vivo Anticancer Drug Screen. Data for tumor model P388 Leukemia (intraperitoneal) in CD2F1 (CDF1) mice
Conditions: endpoint: median survival time, higher = longer survival
Outline: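 Mice carrying the transplanted tumor received test compound or vehicle. Survival was recorded in each group, and the value is the treated-group measurement divided by that of the vehicle-treated control group.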

[1] = dose: 100.0 mg/kg/injection, schedule: Q04DX003 (ip), vehicle: saline with Tween-80
[2] = dose: 200.0 mg/kg/injection, schedule: Q04DX003 (ip), vehicle: saline with Tween-80
[3] = dose: 50.0 mg/kg/injection, schedule: Q01DX009 (ip), vehicle: saline
[4] = dose: 100.0 mg/kg/injection, schedule: Q01DX009 (ip), vehicle: saline
[5] = dose: 200.0 mg/kg/injection, schedule: Q01DX009 (ip), vehicle: saline
[6] = dose: 100.0 mg/kg/injection, schedule: Q01DX001 (ip), vehicle: Klucel (hydroxypropylcellulose) (HPC)
[7] = dose: 200.0 mg/kg/injection, schedule: Q01DX001 (ip), vehicle: Klucel (hydroxypropylcellulose) (HPC)
[8] = dose: 25.0 mg/kg/injection, schedule: Q01DX009 (ip), vehicle: saline
[9] = dose: 50.0 mg/kg/injection, schedule: Q01DX009 (ip), vehicle: saline with Tween-80
[10] = dose: 100.0 mg/kg/injection, schedule: Q01DX009 (ip), vehicle: saline with Tween-80
[11] = dose: 200.0 mg/kg/injection, schedule: Q01DX009 (ip), vehicle: saline with Tween-80
[12] = dose: 60.0 mg/kg/injection, schedule: Q01DX005 (ip), vehicle: saline with Tween-80
[13] = dose: 120.0 mg/kg/injection, schedule: Q01DX005 (ip), vehicle: saline with Tween-80
[14] = dose: 240.0 mg/kg/injection, schedule: Q01DX005 (ip), vehicle: saline with Tween-80
[15] = dose: 25.0 mg/kg/injection, schedule: Q01DX009 (ip), vehicle: saline with Tween-80
[16] = dose: 50.0 mg/kg/injection, schedule: Q01DX009 (ip), vehicle: Klucel (hydroxypropylcellulose) (HPC)
[17] = dose: 200.0 mg/kg/injection, schedule: Q01DX009 (ip), vehicle: Klucel (hydroxypropylcellulose) (HPC)

Measured: T/C

CC(=O)CC(=O)Nc1cc(Cl)c(NC(=O)CC(C)=O)cc1Cl
inactive: [1] 100 % of control | [2] 104 % of control | dose: 400.0 mg/kg/injection, schedule: Q04DX003 (ip), vehicle: saline with Tween-80 95 % of control

CC(C)(C)c1ccc(O)c(C(c2cc(C(C)(C)C)ccc2O)c2cc(C(C)(C)C)ccc2O)c1
inactive: dose: 100.0 mg/kg/injection, schedule: Q01DX001 (ip), vehicle: saline with Tween-80 97 % of control | dose: 200.0 mg/kg/injection, schedule: Q01DX001 (ip), vehicle: saline with Tween-80 98 % of control | dose: 400.0 mg/kg/injection, schedule: Q01DX001 (ip), vehicle: saline with Tween-80 98 % of control

O=C1c2c(O)ccc(O)c2C(=O)c2c(NCCCCO)ccc(NCCCCO)c21
inactive: dose: 0.62 mg/kg/injection, schedule: Q01DX009 (ip), vehicle: acid diluted with saline 103 % of control | dose: 1.25 mg/kg/injection, schedule: Q01DX009 (ip), vehicle: acid diluted with saline 103 % of control | dose: 2.5 mg/kg/injection, schedule: Q01DX009 (ip), vehicle: acid diluted with saline 103 % of control | dose: 5.0 mg/kg/injection, schedule: Q01DX009 (ip), vehicle: acid diluted with saline 112 % of control | dose: 10.0 mg/kg/injection, schedule: Q01DX009 (ip), vehicle: acid diluted with saline 102 % of control | dose: 20.0 mg/kg/injection, schedule: Q01DX009 (ip), vehicle: acid diluted with saline 100 % of control | dose: 40.0 mg/kg/injection, schedule: Q01DX009 (ip), vehicle: acid diluted with saline 98 % of control | dose: 80.0 mg/kg/injection, schedule: Q01DX009 (ip), vehicle: acid diluted with saline 92 % of control | dose: 160.0 mg/kg/injection, schedule: Q01DX009 (ip), vehicle: acid diluted with saline 86 % of control

CC(Oc1cc(Cl)c(Cl)cc1Cl)C(=O)NC(Cc1ccccc1)C(=O)O (stereo unspecified)
inactive: dose: 50.0 mg/kg/injection, schedule: Q01DX005 (ip), vehicle: saline with Tween-80 105 % of control | dose: 100.0 mg/kg/injection, schedule: Q01DX005 (ip), vehicle: saline with Tween-80 109 % of control | dose: 200.0 mg/kg/injection, schedule: Q01DX005 (ip), vehicle: saline with Tween-80 95 % of control

CCCCNC(=O)SCCC(=O)OC
inactive: dose: 50.0 mg/kg/injection, schedule: Q01DX005 (ip), vehicle: Klucel (hydroxypropylcellulose) (HPC) 100 % of control | dose: 100.0 mg/kg/injection, schedule: Q01DX005 (ip), vehicle: Klucel (hydroxypropylcellulose) (HPC) 99 % of control | dose: 200.0 mg/kg/injection, schedule: Q01DX005 (ip), vehicle: Klucel (hydroxypropylcellulose) (HPC) 105 % of control

O=C1C(O)=C(Cl)C(=O)C(O)=C1Cl
inactive: dose: 12.5 mg/kg/injection, schedule: Q01DX005 (ip), vehicle: saline 111 % of control | dose: 25.0 mg/kg/injection, schedule: Q01DX005 (ip), vehicle: saline 101 % of control | dose: 50.0 mg/kg/injection, schedule: Q01DX005 (ip), vehicle: saline 110 % of control | dose: 100.0 mg/kg/injection, schedule: Q01DX005 (ip), vehicle: saline 90 % of control

c1ccc(N=C2CCCCC2)cc1
inactive: dose: 100.0 mg/kg/injection, schedule: Q01DX001 (ip), vehicle: other 98 % of control | dose: 200.0 mg/kg/injection, schedule: Q01DX001 (ip), vehicle: other 97 % of control | dose: 400.0 mg/kg/injection, schedule: Q01DX001 (ip), vehicle: other 106 % of control | dose: 600.0 mg/kg/injection, schedule: Q01DX001 (ip), vehicle: other 101 % of control

Cn1c(=O)c2nc(-c3ccc(Cl)cc3)oc2n(C)c1=O
inactive: [3] 104 % of control | [4] 100 % of control | [5] 102 % of control

COC(=N)N(C)/N=C/c1ccccc1
inactive: [6] 114 % of control | [7] 115 % of control

Clc1ncn[nH]1
inactive: [6] 99 % of control | [7] 106 % of control | dose: 400.0 mg/kg/injection, schedule: Q01DX001 (ip), vehicle: Klucel (hydroxypropylcellulose) (HPC) 122 % of control

C[C](C)(C)[Sn](=[O])[C](C)(C)C
inactive: dose: 6.25 mg/kg/injection, schedule: Q01DX009 (ip), vehicle: saline 95 % of control | dose: 12.5 mg/kg/injection, schedule: Q01DX009 (ip), vehicle: saline 97 % of control | [8] 99 % of control

c1ccc(CSc2nnc3c4ccccc4c4ccccc4c3n2)cc1
inactive: [9] 100 % of control | [10] 102 % of control | [11] 101 % of control

CC1=C(/C=C/C(C)=C/C=C/C(C)=C/C(=O)O)C(C)(C)CCC1
inactive: dose: 32.0 mg/kg/injection, schedule: Q01DX005 (ip), vehicle: saline with Tween-80 119 % of control | dose: 64.0 mg/kg/injection, schedule: Q01DX005 (ip), vehicle: saline with Tween-80 111 % of control | [1] 105 % of control | dose: 128.0 mg/kg/injection, schedule: Q01DX005 (ip), vehicle: saline with Tween-80 103 % of control | [2] 115 % of control

CCOP(=O)(Nc1ccccc1OC)OCC
inactive: [3] 104 % of control | dose: 100.0 mg/kg/injection, schedule: Q01DX001 (ip), vehicle: saline 110 % of control | [4] 107 % of control | dose: 200.0 mg/kg/injection, schedule: Q01DX001 (ip), vehicle: saline 105 % of control | [5] 100 % of control | dose: 400.0 mg/kg/injection, schedule: Q01DX001 (ip), vehicle: saline 102 % of control

c1ccc2c(SC3CCC4CC5CC4C3C5)nccc2c1 (stereo unspecified)
inactive: [12] 91 % of control | [13] 94 % of control | [14] 91 % of control

COc1ccc(C(O)(CS(C)=O)c2cccs2)cc1 (stereo unspecified)
inactive: dose: 12.5 mg/kg/injection, schedule: Q01DX009 (ip), vehicle: saline with Tween-80 94 % of control and 97 % of control | [15] 100 % of control and 102 % of control | [9] 110 % of control and 96 % of control | [10] 91 % of control and 96 % of control

CC(=O)SCCCn1c(=O)n(CCCSC(C)=O)c(=O)n(CCCSC(C)=O)c1=O
inactive: dose: 50.0 mg/kg/injection, schedule: Q01DX005 (ip), vehicle: saline + Tween-80 + alcohol 114 % of control | dose: 100.0 mg/kg/injection, schedule: Q01DX005 (ip), vehicle: saline + Tween-80 + alcohol 110 % of control | dose: 200.0 mg/kg/injection, schedule: Q01DX005 (ip), vehicle: saline + Tween-80 + alcohol 116 % of control

COC(=O)Cc1cccc2c(=O)cc(-c3cccs3)oc12
inactive: [8] 90 % of control | dose: 25.0 mg/kg/injection, schedule: Q01DX009 (ip), vehicle: suspension in saline 97 % of control | [3] 105 % of control and 92 % of control | dose: 50.0 mg/kg/injection, schedule: Q01DX009 (ip), vehicle: suspension in saline 94 % of control | [4] 117 % of control and 97 % of control | dose: 100.0 mg/kg/injection, schedule: Q01DX009 (ip), vehicle: suspension in saline 94 % of control | [5] 108 % of control | dose: 200.0 mg/kg/injection, schedule: Q01DX009 (ip), vehicle: suspension in saline 95 % of control

O=C1C(=O)c2ccccc2C(O)=C1CCCc1ccc(C2CCCCCC2)cc1
inactive: [15] 86 % of control | [9] 88 % of control | [10] 89 % of control | [11] 95 % of control

COc1cc([N+](=O)[O-])c2nccc(C)c2c1
inactive: dose: 25.0 mg/kg/injection, schedule: Q01DX009 (ip), vehicle: Klucel (hydroxypropylcellulose) (HPC) 100 % of control | [16] 101 % of control | dose: 100.0 mg/kg/injection, schedule: Q01DX009 (ip), vehicle: Klucel (hydroxypropylcellulose) (HPC) 101 % of control | [17] 104 % of control

COc1ccc(C2COc3cc(OC(C)=O)c(OC(C)=O)cc3C2)cc1 (stereo unspecified)
inactive: [12] 103 % of control | [13] 103 % of control | [14] 103 % of control

O=C1Cc2ccccc2CC1CC1Cc2ccccc2CC1=O (stereo unspecified)
inactive: [16] 87 % of control | [17] 91 % of control

O=C(CCS(=O)O)c1cccs1
inactive: dose: 100.0 mg/kg/injection, schedule: Q04DX003 (ip), vehicle: saline 99 % of control | dose: 200.0 mg/kg/injection, schedule: Q04DX003 (ip), vehicle: saline 96 % of control | dose: 400.0 mg/kg/injection, schedule: Q04DX003 (ip), vehicle: saline 92 % of control

Cc1noc(C)c1Br
inactive: [9] 97 % of control | [10] 102 % of control | [11] 102 % of control
